Measured values: patent US11976083B2, “Inhibitors of peptidylarginine deiminases” (Gilead Sciences, Inc., priority 2020, dated 2024)

target: T1, human PAD4 (Homo sapiens, UniProt Q9UM07); test: In vitro PAD4 BAEE biochemical assay; details: BAEE substrate 3 mM, 5 nM PAD4, 2 mM calcium chloride; geometric mean of multiple experiments
T1 construct: human PAD4 (NM_012387), A2-P663, was PCR amplified; His-SUMO (N, cleaved yes); made in house; host or cells: E. coli BL21(DE3)
Method in brief: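 Recombinant PAD4 (5 nM final) with 2 mM CaCl2 was preincubated with compound for 30 min at 25 °C in MOPS pH 7.6 buffer with DTT, then reacted with 3 mM BAEE for 2 h at 25 °C. Released ammonia was detected fluorimetrically with o-phthalaldehyde/DTT; IC50 from four-parameter fit, geometric mean of experiments.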

T1 sequence (Q9UM07 2-663): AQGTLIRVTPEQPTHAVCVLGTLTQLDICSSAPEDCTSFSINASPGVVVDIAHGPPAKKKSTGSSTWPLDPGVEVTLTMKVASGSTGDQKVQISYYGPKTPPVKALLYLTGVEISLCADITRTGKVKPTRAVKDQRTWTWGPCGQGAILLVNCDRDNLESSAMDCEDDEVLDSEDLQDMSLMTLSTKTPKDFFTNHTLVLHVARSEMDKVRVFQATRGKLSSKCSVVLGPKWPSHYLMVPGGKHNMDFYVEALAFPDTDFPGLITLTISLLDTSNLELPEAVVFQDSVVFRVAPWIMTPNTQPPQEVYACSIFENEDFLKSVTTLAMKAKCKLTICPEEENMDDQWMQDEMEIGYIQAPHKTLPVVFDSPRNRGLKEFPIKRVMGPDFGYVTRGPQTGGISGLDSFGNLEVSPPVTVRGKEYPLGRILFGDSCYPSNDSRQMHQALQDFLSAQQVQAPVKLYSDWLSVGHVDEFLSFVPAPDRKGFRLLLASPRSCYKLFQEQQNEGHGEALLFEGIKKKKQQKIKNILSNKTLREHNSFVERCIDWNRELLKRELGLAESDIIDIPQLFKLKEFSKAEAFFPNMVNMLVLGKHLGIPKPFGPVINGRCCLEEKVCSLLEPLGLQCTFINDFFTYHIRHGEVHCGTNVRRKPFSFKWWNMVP

SMILES	IC50 [nM]
COc1cc(C(=O)N2CC[C@@H](OC)[C@@H](N)C2)cc2nc(-c3cc4ccc5nc4n3CCCCCC[C@@](F)(c3ccccn3)C(=O)N[C@@H]5C)n(C)c12 [Example 870, (8~{R},11~{R})-17-[5-[(3~ {S),4~{R})-3-amino-4-methoxy-piperidine-1-carbonyl]-7-methoxy-1-methyl-benzimidazol-2-yl]-8-fluoro-11-methyl-8-(2-pyridyl)-1,10,19-triazatricyclo[10.5.2.0^{15,18}] nonadeca-12(19), 13,15(18),16-tetraen-9-one]	83
COc1cc(C(=O)N2C[C@@H]3NCCO[C@@H]3C[C@@H]2C)cc2nc(-c3cc4ccc5nc4n3CC(F)(F)CCC[C@@H]3C[C@H]3C(=O)N[C@@H]5C)n(C)c12 [Example 801, (2~{R},5~{R},7~{R})-14-[5-[(4~{a}~{S),7~{S},8~{a}~ {R})-7-methyl-2,3,4,4~{a}, 5,7,8,8~{a}-octahydropyrido [4,3-b][1,4]oxazine-6-carbonyl]-7-methoxy-1-methyl-benzimidazol-2-yl]-11,11-difluoro-2-methyl-3,13,19-triazatetracyclo[11.5.2.0^ {5,7}.0^{16,20}]icosa-1(18),14,16,19-tetraen-4-one]	334
COc1cc(C(=O)N2CCC[C@@H](N)C2)cc2nc(-c3cc4ccc5nc4n3CCCCCC[C@@](C)(C(F)(F)F)C(=O)N[C@@H]5C)n(C)c12 [Example 1, (8~{R},11~{R})-17-[5-[(3~{R})-3-aminopiperidine-1-carbonyl]-7-methoxy-1-methyl-benzimidazol-2-yl]-8,11-dimethyl-8-(trifluoromethyl)-1,10,19-triazatricyclo[10.5.2.0^{15,18}]nonadeca-12(19),13,15(18),16-tetraen-9-one]	104
C[C@H]1NC(=O)C(C)(C)CCCCCCn2c(-c3nc4cc(C(=O)N[C@H]5CNCC[C@@H]5F)c(F)cc4n3C3C[C@@H]3F)cc3ccc1nc32 (stereo partly shown) [Example 602, (1~{R})-6-fluoro-1-[(2~{S})-2-fluorocyclopropyl]-~{N}-[(3~{S},4~{S})-4-fluoro-3-piperidyl]-2-[(11~{R})-8,8,11-trimethyl-9-oxo-1,10,19-triazatricyclo [10.5.2.0^{15,18}]nonadeca-12,14,16,18-tetraen-17-yl]benzimidazole-5-carboxamide]	97
COc1cc(C(=O)N2CCC[C@@H](N)C2)cc2nc(-c3cc4ccc5nc4n3C[C@@H]3C[C@H]3CC[C@@H]3C[C@H]3C(=O)N[C@@H]5C)n(C)c12 [Example 168, (3~{R},5~{R},8~{R},10~{R},13~{R})-19-[5-[(3~{R})-3-aminopiperidine-1-carbonyl]-7-methoxy-1-methyl-benzimidazol-2-yl]-13-methyl-1,12,21-triazapentacyclo[12.5.2.0^{3,5}.0^{8,10}.0^ {17,20}]henicosa-14(21),15,17(20),18-tetraen-11-one]	39
COc1cc(C(=O)N2CCC[C@@H](N)C2)cc2nc(-c3cc4ccc5nc4n3CCCCCCCC(=O)N[C@@H]5C)n(C3CC3)c12 [Example 229, (11~{R})-17-[5-[(3~{R})-3-aminopiperidine-1-carbonyl]-1-cyclopropyl-7-methoxy-benzimidazol-2-yl]-11-methyl-1,10,19-triazatricyclo[10.5.2.0^{15,18}]nonadeca-12(19),13,15(18),16-tetraen-9-one]	72
COc1cc(C(=O)N2C[C@H](N)CC[C@@H]2C)cc2nc(-c3cc4ccc5nc4n3CCCCCCC(C)(C)C(=O)N[C@@H]5C)n(C)c12 [Example 5, (11~{R})-17-[5-[(2~{S},5~{R})-5-amino-2-methyl-piperidine-1-carbonyl]-7-methoxy-1-methyl-benzimidazol-2-yl]-8,8,11-trimethyl-1,10,19-triazatricyclo[10.5.2.0^{15,18}]nonadeca-12(19),13,15(18),16-tetraen-9-one]	76
COc1cc(C(=O)N2CCC[C@@H](N)C2)cc2nc(-c3cc4ccc5nc4n3CCCCCc3c(cnn3C)C(=O)N[C@@H]5C)n(C)c12 [Example 170, (2~{R})-16-[5-[(3~{R})-3-aminopiperidine-1-carbonyl]-7-methoxy-1-methyl-benzimidazol-2-yl]-2,8-dimethyl-3,7,8,15,21-pentazatetracyclo[13.5.2.0^{5,9).0^{18,22}] docosa-1(21),5(9),6,16,18(22),19-hexaen-4-one]	118

Stronger by IC50, values ahead:

IC50 [nM]	SMILES
36	COc1cc(C(=O)N2CC[C@H]3CCN[C@H]3C2)cc2nc(-c3cc4ccc5nc4n3CCCCC[C@@H]3C[C@H]3C(=O)N[C@@H]5C)n(C)c12 [Example 531, (2~{R},5~{R},7~{R})-14-[5-[(3~{a}-{R},7~ {a}~{R})-1,2,3,3~ {a},4,5,7,7~{a}-octahydropyrrolo[2,3-c]pyridine-6-carbonyl]-7-methoxy-1-methyl-benzimidazol-2-yl]-2-methyl-3,13,19-triazatetracyclo[11.5.2.0^ {5,7}.0^{16,20}]icosa-1(19),14,16(20),17-tetraen-4-one]
33	C[C@H]1NC(=O)c2nccnc2CCCC(F)(F)Cn2c(-c3nc4cc(C(=O)N5C[C@H](N)[C@@H]6CC[C@H]5C6)cc(F)c4n3C3CC3)cc3ccc1nc32 [Example 483, (2~{R})-17-[5-[(1~{S},4~{R},5~{R})-4-amino-2-azabicyclo[3.2.1]octane-2-carbonyl]-1-cyclopropyl-7-fluoro-benzimidazol-2-yl]-14,14-difluoro-2-methyl-3,6,9,16,22-pentazatetracyclo[14.5.2.0^{5,10}.0^{19, 23}]tricosa-1(22),5(10),6,8,17,19(23),20-heptaen-4-one]
29	COc1cc(C(=O)N2[C@H]3CC[C@@H]2[C@H](N)C3)cc2nc(-c3cc4ccc5nc4n3C[C@@H]3C[C@H]3COCCC(=O)N[C@@H]5C)n(C)c12 [Example 218, (3~{R},5~{R},12~{R})-18-[5-[(1~{R},2~{R},4~{S})-2-amino-7-azabicyclo[2.2.1]heptane-7-carbonyl]-7-methoxy-1-methyl-benzimidazol-2-yl]-12-methyl-7-oxa-1,11,20-triazatetracyclo[11.5.2.0^{3,5}.0^{16,19}] icosa-13(20),14,16(19),17-tetraen-10-one]
26	COc1cc(C(=O)N2C[C@H](N)[C@@H]3CC[C@H]2C3)cc2nc(-c3cc4ccc5nc4n3CCCCC[C@]3(F)C[C@H]3C(=O)N[C@@H]5C)c(C)n12 [Example 815, (2~{R},5~{S},7~{S})-14-[7-[(1~{S},4~{R},5~{R})-4-amino-2-azabicyclo[3.2.1]octane-2-carbonyl]-5-methoxy-3-methyl-imidazo[1,2-a]pyridin-2-yl]-7-fluoro-2-methyl-3,13,19-triazatetracyclo [11.5.2.0^{5,7}.0^{16,20}] icosa-1(18),14,16,19-tetraen-4-one]
20	C[C@H]1NC(=O)c2c(ccnc2C2CC2)CCCCCn2c(-c3nc4cc(C(=O)N5C[C@H](N)[C@@H]6CC[C@H]5C6)cc(F)c4n3C3CC3)cc3ccc1nc32 [Example 671, (2~{R})-17-[5-[(1~{S),4~ {R},5~{R})-4-amino-2-azabicyclo[3.2.1]octane-2-carbonyl]-1-cyclopropyl-7-fluoro-benzimidazol-2-yl]-6-cyclopropyl-2-methyl-3,7,16,22-tetrazatetracyclo [14.5.2.0^{5,10}.0^{19,23}] tricosa-1(22),5(10),6,8,17, 19(23),20-heptaen-4-one]
